Drawing on PubChem BioAssay AID602415 (The Scripps Research Institute Molecular Screening Center, 2012), this text covers substrate turnover for 60 compounds.

Structures are written as SMILES. Active and inactive are the calls of the source.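 Rule for the calls: active = substrate turnover at or below 60%; inactive = substrate turnover above 60%.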

Sequence of Diacylglycerol lipase-beta (Mus musculus) (Q91WC9 whole entry, looked up): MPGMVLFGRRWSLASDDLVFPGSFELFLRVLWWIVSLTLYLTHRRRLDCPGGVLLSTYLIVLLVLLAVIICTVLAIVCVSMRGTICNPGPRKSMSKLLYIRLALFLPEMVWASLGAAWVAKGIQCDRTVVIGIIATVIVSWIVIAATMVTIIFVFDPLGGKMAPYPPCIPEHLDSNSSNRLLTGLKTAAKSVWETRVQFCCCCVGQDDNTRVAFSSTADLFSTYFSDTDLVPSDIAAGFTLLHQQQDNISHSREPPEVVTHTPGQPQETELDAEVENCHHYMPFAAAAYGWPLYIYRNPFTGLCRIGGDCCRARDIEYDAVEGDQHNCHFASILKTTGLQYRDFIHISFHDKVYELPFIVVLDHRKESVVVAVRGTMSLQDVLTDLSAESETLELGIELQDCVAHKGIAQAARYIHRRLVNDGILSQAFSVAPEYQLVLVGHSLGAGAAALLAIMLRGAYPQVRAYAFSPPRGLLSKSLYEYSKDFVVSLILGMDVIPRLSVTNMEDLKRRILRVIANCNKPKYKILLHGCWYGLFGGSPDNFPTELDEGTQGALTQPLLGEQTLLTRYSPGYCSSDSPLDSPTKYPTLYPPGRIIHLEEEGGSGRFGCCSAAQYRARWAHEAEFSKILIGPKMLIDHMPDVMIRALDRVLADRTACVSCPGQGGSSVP

This experiment addresses Diacylglycerol lipase-beta (Mus musculus) (UniProt Q91WC9). Put plainly: DAGLb inhibitors reducing SAG hydrolysis, biochemical, LC-MS, overexpressed mouse DAGLb (AID 602415). To be noted: HEK293T membranes overexpressing mDAGLb, at 10 µM, active compounds read low.
For the compound `NP(=O)(OCCCCc1ccccc1)Oc1ccccc1Cl` (stereo not given), the substrate turnover is 25%.
Next, `Cn1cc(/C=C2\SC(=O)NC2=S)c2ccccc21`: 61% (inactive).
Under `Cc1[nH]n2c(=O)cc(-c3ccc([N+](=O)[O-])cc3)nc2c1-c1ccccc1` stands 90% (inactive); under `CC1=NN(c2ccccc2)C(=O)/C1=C\C=C1/N(C)c2ccccc2C1(C)C`, 74% (inactive); under `CCOc1cc(/C=C2\N=C(SCC)SC2=O)cc([N+](=O)[O-])c1OC(C)=O`, 78% (inactive).
Turning to `O=C(NN1C(=O)/C(=C/c2ccc(O)c([N+](=O)[O-])c2)SC1=S)c1ccccc1Cl`, the substrate turnover was 59%.
Next, `O=C(O)COc1ccccc1C=NNc1ccc(S(=O)(=O)Nc2ccc(Cl)cc2)cc1[N+](=O)[O-]`: 50%.
Next, `CC1(C)CC(=O)C2=C(C1)c1c(ccc3ccccc13)NC2c1cc([N+](=O)[O-])cc([N+](=O)[O-])c1O` (stereo not given): 46%; `Nc1nc(-c2ccccc2)c(N=Nc2cccnc2)s1`: 53%.
Next, `COc1ccccc1C=NNc1ccccc1[N+](=O)[O-]`: 94% (inactive).
With `COc1ccc(C=NNc2ccc(C(F)(F)F)cc2[N+](=O)[O-])cc1O`, the substrate turnover was 76% (inactive).
Next, `CN(C)c1ccc(N=Nc2ccccc2C(=O)OCC(=O)NCC2CCCCC2)cc1`: 79% (inactive); `Nc1nc(-c2ccccc2)c(N=Nc2ccccc2Cl)s1`: 39%.
Under `O=[N+]([O-])c1ccc(N2CCN(c3ccccc3)CC2)cc1` stands 91% (inactive); under `O=C(NC(C(=O)NN=Cc1c2ccccc2cc2ccccc12)c1n[nH]c(=O)c2ccccc12)c1ccccc1` (stereo not given), 64% (inactive); under `Cc1ccc(Nc2nnc(SCc3nc4ccccc4c(=O)[nH]3)s2)cc1`, 87% (inactive).
Under `COc1cc(/C=C2\SC(=O)N(c3ccccc3Cl)C2=O)cc([N+](=O)[O-])c1O` stands 61% (inactive); under `CN(C)c1ccc(N=Nc2ccc(S(=O)(=O)O)cc2)c2ccccc12`, 66% (inactive).
As to `Nc1nc(-c2ccccc2)c(N=Nc2ccc(Cl)cc2)s1`, the substrate turnover is 23%.
Under `CCOc1ccc(Nc2nnc(SCc3nc4ccccc4c(=O)[nH]3)s2)cc1` stands 69% (inactive).
Under `CCN(CCCNc1cc2c(c(N)c1S(=O)(=O)O)C(=O)c1ccccc1C2=O)c1ccccc1` stands 80% (inactive); under `CC(=O)Nc1ccc(/C=N/Nc2ccc(S(=O)(=O)Nc3ccccc3C(=O)O)cc2[N+](=O)[O-])cc1`, 84% (inactive).
Next, `O=C(NC(C(=O)NN=Cc1cccc2ccccc12)c1n[nH]c(=O)c2ccccc12)c1ccccc1` (stereo not given): 49%.
As to `COC(=O)C1=C(C(=O)OC)SC(=C2C(=S)C(C)(C)N(C(=O)C3CC3)c3ccccc32)S1`, the substrate turnover is 95% (inactive).
For `CC1CC(C)CN(C(=O)c2ccc3c(c2NCCO)C(=O)c2ccccc2C3=O)C1` (stereo not given), the substrate turnover is 78% (inactive).
For the compound `O=C1c2cccc(Cl)c2C(=O)c2c1cccc2N1CCCC1`, the substrate turnover was 52%.
Under `Cc1ccc(NC2=C(Cl)C(=O)OC2OC(=O)c2ccco2)cc1C` (stereo not given) stands 39%; under `CN(C)c1ccc(N=Nc2ccccc2C(=O)OCC(=O)Nc2ccccc2C(F)(F)F)cc1`, 67% (inactive).
Under `Nc1ccc(N=Nc2ccccc2)c2cccnc12` stands 88% (inactive); under `COc1ccccc1N=Nc1nc(-c2ccccc2)c(-c2ccccc2)[nH]1`, 79% (inactive).
Regarding `Nc1nc(-c2ccccc2)c(N=Nc2cccc3ccccc23)s1`, the substrate turnover is 95% (inactive).
Under `C/C(C/C(C)=C1/SC(=S)NC1=O)=C1\SC(=S)NC1=O` stands 22%; under `CCN(Cc1ccccc1)c1ccc(N=Nc2nn(C)c(C)c2[N+](=O)[O-])cc1`, 97% (inactive).
Next, `N#CC(C#N)=NNc1ccc([N+](=O)[O-])cc1`: 65% (inactive); `Cc1cc(N=Nc2ccccc2)c(NCC(O)C(O)C(O)CO)cc1C` (stereo not given): 69% (inactive); `COc1cccc(C(=O)NNc2c3ccccc3nc3ccccc23)c1`: 71% (inactive).
Under `Cc1ccc(-n2[nH]c(C)c(C=NNc3ccc([N+](=O)[O-])cc3[N+](=O)[O-])c2=O)cc1C` stands 57%.
As to `CC(=O)C1=C(O)C(=O)N(c2cc(C(C)(C)C)on2)C1c1ccc(Br)cc1` (stereo not given), the substrate turnover is 26%.
Next, `O=C1CC(=C(c2ccccc2)c2ccccc2)C(=O)N1CCCCN1CCN(c2cccc(Cl)c2)CC1`: 26%; `Cc1cc(N=Nc2ccccc2C(=O)O)c(C)c(C)c1O`: 89% (inactive).
Under `c1ccc(N=NC2=NN(c3ccccc3)CS2)cc1` stands 61% (inactive).
Under `Cc1cc(N(CCO)CCO)ccc1N=Nc1cc(F)ccc1F` stands 69% (inactive).
Turning to `CCOc1ccc2c(c1)-c1c(ssc1=S)C(C)(C)N2`, the substrate turnover is 70% (inactive).
Next, `CC(C1SC(=S)NC1=O)C1SC(=S)NC1=O` (stereo not given): 67% (inactive).
Next, `O=C1C(=C(c2ccccc2)c2ccccc2)Nc2ccccc21`: 50%; `NC(=O)CC(NC(=O)c1ccc(Br)cc1)c1ccc(NCCc2ccc(F)cc2)c([N+](=O)[O-])c1` (stereo not given): 70% (inactive); `Nc1ccc2c(c1)C(=O)c1cc(Cl)c(Cl)cc1-2`: 47%.
Next, `COC(=O)c1ccccc1NCc1cc(=O)oc2cc(O)c(O)cc12`: 48%; `CCCOc1ccc(C(=O)NNC(=S)NC(=O)c2cc(-c3ccc(Cl)cc3)nc3ccccc23)cc1`: 93% (inactive); `COc1cc(/C=C2/C(=O)NN(c3ccc(C)c(Cl)c3)C2=O)cc([N+](=O)[O-])c1O`: 43%.
On to `Cc1oc2cc([N+](=O)[O-])c(O)c([N+](=O)[O-])c2c1C(=O)c1ccc(Br)cc1`, for which the substrate turnover was 62% (inactive).
With `CCC(=NNc1ccc([N+](=O)[O-])cc1[N+](=O)[O-])c1ccc(O)cc1`, the substrate turnover is 67% (inactive).
Under `O=C(NNc1c2ccccc2nc2ccccc12)c1ccc(O)cc1O` stands 79% (inactive); under `O=C(O)c1cc(S(=O)(=O)Nc2cc(Cl)ccc2Oc2ccccc2)ccc1O`, 53%.
Take `CC(=O)c1c(C)oc2ccc(NS(=O)(=O)c3ccc(O)c(C(=O)O)c3)cc12`: the substrate turnover was 23%.
Under `Cc1ccc(-n2c(O)c(/C=N/Nc3ccc(S(=O)(=O)N4CCOCC4)cc3[N+](=O)[O-])c3ccccc3c2=O)c(C)c1` stands 56%.
As to `O=[N+]([O-])c1ccccc1NN=Cc1c[nH]c2ccccc12`, the substrate turnover is 80% (inactive).
Under `N=C1C(c2nc3ccccc3s2)=C(O)CN1NC(=O)c1ccccc1[N+](=O)[O-]` stands 46%.
Next, `O=C(NNc1c2ccccc2nc2ccccc12)c1ccccc1O`: 56%; `CC1=NN(c2ccccc2)C(=O)C1N=Nc1ccc(N)cc1` (stereo not given): 65% (inactive).
